Experimental data: PMC11455950, “Effects of SZV-2649, a new multiple ion channel inhibitor mexiletine analogue” (Scientific Reports, 2024)
Where “and” joins values, the source holds several entries; their conditions need not be identical. Equal values may be shown once.

Legend:
[1] = system: rapid delayed rectifier potassium current (IKr); experiment: Whole-cell patch-clamp, rapid delayed rectifier potassium current in dog ventricular myocytes; format: cell-based; details: Canis lupus familiaris, Ventricular myocyte, tail current, dog left ventricular myocytes
Procedure: The effects of SZV-2649 on transmemrane ionic currents were investigated in dog cardiac myocytes after a 5-minute superfusion of the drug.
The rapid delayed rectifier potassium current (IKr) was elicited from the holding potential of -80 mV following a prepulse to -40 mV. IKr tail current was measured at a post pulse to -40 mV after 1 s long test pulses from − 30 mV to 50 mV using 10 mV increments at the pulsing cycle length of 20 s (see inset of Fig. 4A). The effect of SZV-2649 was investigated at 1 and 5 µM concentrations.
Ventricular myocytes from Beagle dogs were enzymatically dissociated as described in detail previously. […]
The membrane currents were recorded with Axopatch-200B amplifiers (Molecular Devices, Sunnyvale, CA, USA) by means of the whole-cell configuration of the patch-clamp technique. […]
The inward rectifier (IK1), the transient outward (Ito), the rapid (IKr) and the slow (IKs) delayed rectifier potassium currents were recorded in HEPES-buffered Tyrode’s solution. […] When IKr was recorded, IKs was inhibited by using the selective IKs blocker HMR-1556 (0.5 µM). […]

anesthetized dogs = experiment: Atrial fibrillation induced by carbachol infusion and burst stimulation in anesthetized dogs; format: in vivo, dog; design: key to AF converted to SR? / AF reinduced?: N, response not observed; Y, response observed
Procedure: The effect of SZV-2649 was further investigated in carbachol-infused and programmed electrical stimulation-induced (i.e. 800/min atrial burst stimulation) acute atrial fibillation model in anesthetized dogs.
In the atrial fibrillation experiments, at least 5–6 dogs for control and test groups, (respectively) were used. Following 0.5 µg/kg sufentanyl premedication and […] i.v. pentobarbital anaesthesia induction, left thoracotomy was performed on all animals. Dogs were endotracheally intubated and mechanically ventilated (UGO Basile respirator; Biological Research Apparatus, Italy) Physiological parameters (non-invasive blood pressure, SpO2, ECG) were continuously monitored during surgery and experiments (InnoCare-VET Patient Care Monitor; Budapest, Hungary). The ECGs were recorded using precordial leads and were digitized and stored on a computer for off-line analysis using National Instruments data acquisition hardware (National Instruments, Austin, Texas, USA) and SPEL Advanced Haemosys software (version 3.2, MDE Heidelberg GmbH, Germany). Under pentobarbital anaesthesia, two pacemaker electrodes (Biotronik Solia S 60; Biotronik Ltd., Hungary) were positioned epicardially into the left atrial appendage and apex of the left ventricle, respectively, and electrodes were connected to pacemakers (Effecta D; Biotronik Hungary Ltd., Hungary). Pacemakers were programmed in VVI mode using Biotronik IC: 4808 A-Renamic programmer to prevent the potentially bradycardic effect of carbachol leading to hemodynamic instability. Atrial and ventricular thresholds were measured before AF induction in all animals. Ventricular and atrial pacing were set to three times the measured threshold. AF inducibility were tested in both groups using a control set (25 times) of 10-second-long rapid atrial bursts (800 beats/min, at threefold threshold). Following 25 atrial burst stimuli, 2 × 2 µg/kg loading dose of intravenous carbachol was administered followed by an 8 µg/kg/h maintenance dose. Atrial fibrillation was induced using 10-second-long atrial burst stimuli in the presence of carbachol in both groups of dogs. […] In these experiments, we investigated whether AF was converted to SR by the test drug(s). All intravenous infusions were performed using a programmable infusion pump (Terufusion TE-3; Terumo Europe, Leuven, Belgium).

anesthetized rats = experiment: Coronary artery occlusion/reperfusion-induced ventricular arrhythmias in anesthetized rats; format: in vivo, rat
Excerpt: The effects of SZV-2649 were further studied in the acute ischemia-induced ventricular arrhythmia model in anasthetized rats. Mexiletine and dofetilide were used as reference compounds for comparison.
The surgical procedure was based on a modified method described in detail in Gömöri et al. (2020)[62]. Pentobarbital-anesthetized male Wistar-Hannover rats were mechanically ventilated and subjected to thoracic surgery to perform a 6-min coronary artery occlusion and 5-min of reperfusion for the development of ischemia-induced ventricular arrhythmias (see Fig. 6A). The right jugular vein was cannulated for the administration of SZV-2649, vehicle, mexiletine or dofetilide, and the right carotid artery was used to measure blood pressure. The three-lead electrocardiogram and body temperature were continuously registered. Ten to twelve rats per group were administered vehicle (dimethyl sulfoxide, 200 µL/kg) or the studied drugs (see above), 2 min before the onset of ischemia as a slow i.v. bolus injection through the right jugular vein. At the end of 5-min reperfusion, hearts were isolated, mounted onto a Langendorff perfusion system, and after re-occluding the coronary artery, were perfused with 5-mL of 70% ethanol via the ascending aorta to delineate the ischemic risk zone. Then the left ventricles were cut along the demarcation lines of denatured area, and the sections were weighed to determine the area of risk to normalize the extent of the ischaemic insult. We evaluated the occurrence of ventricular arrhythmias based on the recommendations of the modified Lambeth Conventions published previously by Curtis et al. (2013)[63].

[2] = i.v. 10 mg/kg, individual dogs, carbachol + burst, 10 mg/kg

CC(N)COc1c(I)cc(C#N)cc1I.Cl (stereo not drawn) [SZV-2649, 4-(2-aminopropoxy)-3,5-diiodobenzonitrile hydrochloride]
inhibition at 1 µM ([1]; 1 µM): ~23%
inhibition at 5 µM ([1]; 5 µM): ~75%
AF converted to SR? (anesthetized dogs; i.v. 10 mg/kg, individual dogs, carbachol + burst): Y
AF converted to SR? (time printed in cell) (anesthetized dogs; [2]): 79 s and 175 s and 64 s and 286 s and 84 s and 194 s
AF reinduced (number of the 25 burst stimuli) (anesthetized dogs; [2]): 0/25 and 1/25 and 2/25
AF reinduced? (anesthetized dogs; [2]): N and Y (2×)
Atrial fibrillation reinduced, share of burst stimuli (anesthetized dogs; i.v. 10 mg/kg, whole group): 2%
Times atrial fibrillation was reinduced by the 25 burst stimuli delivered in each animal (anesthetized dogs; i.v. 10 mg/kg, whole group): 3 times
Experimental animals in which atrial fibrillation was converted to sinus rhythm (anesthetized dogs; intravenous bolus 10 mg/kg): 100%
Effect on incidence of ventricular arrhythmias (anesthetized rats; 6 min coronary artery occlusion / 5 min reperfusion, i.v. 2 min before ischemia): markedly reduced
Incidence of ventricular fibrillation (VF) (anesthetized rats; during reperfusion, over 50% in control animals): 0%
Effect on heart rate (anesthetized rats; i.v. administration, anesthetized rats): significantly decreased
